# According to ChEMBL document CHEMBL4118062, “Novel NO-releasing plumbagin derivatives: Design, synthesis and evaluation of antiproliferative activity” (Eur J Med Chem, 2017):
# Assays:
# [1] = Drug metabolism in human MDA-MB-231 cells assessed as nitric oxide release at 30 uM after 0.5 to 30 hrs by Griess assay; format: ADME, cell-based; settings: mda-mb-231, 30 µM
# [2] = system: A549; assay: Cytotoxicity against human A549 cells assessed as growth inhibition after 72 hrs by MTT assay; format: functional, cell-based; settings: A549, 72 h
# [3] = system: MDA-MB-231; assay: Cytotoxicity against human MDA-MB-231 cells assessed as growth inhibition after 72 hrs by MTT assay; format: functional, cell-based; settings: MDA-MB-231, 72 h
# [4] = Selectivity ratio of IC50 for human A549 cells to IC50 for human MDA-MB-231 cells; format: functional
# [5] = system: MDA-MB-231; assay: Cytotoxicity against human MDA-MB-231 cells assessed as growth inhibition at 10 uM after 72 hrs by MTT assay relative to control; format: functional; settings: MDA-MB-231, 72 h, read-out: GI
# [6] = Selectivity ratio of IC50 for human HepG2 cells to IC50 for human MDA-MB-231 cells; format: functional
# [7] = system: HepG2; assay: Cytotoxicity against human HepG2 cells assessed as growth inhibition after 72 hrs by MTT assay; format: functional, cell-based; settings: HepG2, 72 h
# [8] = system: HepG2; assay: Cytotoxicity against human HepG2 cells assessed as growth inhibition at 10 uM after 72 hrs by MTT assay relative to control; format: functional; settings: HepG2, 72 h, read-out: GI
# [9] = system: MDA-MB-231; assay: Cytotoxicity against human MDA-MB-231 cells assessed as growth inhibition at 40 uM after 72 hrs by MTT assay relative to control; format: functional; settings: MDA-MB-231, 72 h, read-out: GI
# [10] = system: HepG2; assay: Cytotoxicity against human HepG2 cells assessed as growth inhibition at 40 uM after 72 hrs by MTT assay relative to control; format: functional; settings: HepG2, 72 h, read-out: GI
# [11] = Drug degradation in PBS at pH 8 at 1000 uM after 24 hrs by HPLC method; format: physicochemical; settings: read-out: Drug degradation
# [12] = Drug degradation in PBS at pH 7.4 at 1000 uM after 24 hrs by HPLC method; format: physicochemical; settings: read-out: Drug degradation
# [13] = Chemical stability in PBS at pH 6 at 1000 uM after 3 to 24 hrs by HPLC method; format: physicochemical; settings: buffer, pH 6, 1000 µM
# [14] = system: MDA-MB-231; assay: Cytotoxicity against human MDA-MB-231 cells assessed as growth inhibition at 20 uM after 72 hrs by MTT assay relative to control; format: functional; settings: MDA-MB-231, 72 h, read-out: GI
# [15] = system: HepG2; assay: Cytotoxicity against human HepG2 cells assessed as growth inhibition at 20 uM after 72 hrs by MTT assay relative to control; format: functional; settings: HepG2, 72 h, read-out: GI
# [16] = Chemical stability in PBS at pH 7.4 assessed as parent compound remaining at 1000 uM after 24 hrs by HPLC method; format: physicochemical; settings: read-out: Stability
# [17] = Chemical stability in PBS at pH 8 at 1000 uM after 24 hrs by HPLC method; format: physicochemical; settings: buffer, pH 8, 24 h
Structure (SMILES),Drug metabolism [1],IC50 [2],IC50 [3],Ratio IC50 [4],inhibition of growth at 10 µM [5],Ratio IC50 [6],IC50 [7],inhibition of growth at 10 µM [8],inhibition of growth at 40 µM [9],inhibition of growth at 40 µM [10],"degraded at 24 h, 1000 µM [11]","degraded at 24 h, 1000 µM [12]",Stability [13],inhibition of growth at 20 µM [14],inhibition of growth at 20 µM [15],"remaining at 24 h, 1000 µM [16]",Stability [17]
CC1=C(C(C)CC(=O)OCCCOc2no[n+]([O-])c2S(=O)(=O)c2ccccc2)C(=O)c2c(O)cccc2C1=O (centres undefined),Metabolite_Detected,13.9 µM,2.42 µM,5.8,95.3%,1.8,4.32 µM,92.7%,,,,,,,,,
CC1=C(CC(=O)OCCCCOc2no[n+]([O-])c2S(=O)(=O)c2ccccc2)C(=O)c2c(O)cccc2C1=O,Metabolite_Detected,> 20 µM,5.2 µM,>3.8,96.3%,1.5,7.72 µM,87.2%,,,,,,,,,
CC1=C(C(C)CC(=O)OCC(C)COc2no[n+]([O-])c2S(=O)(=O)c2ccccc2)C(=O)c2c(O)cccc2C1=O (centres undefined),Metabolite_Detected,12.8 µM,2.11 µM,6.1,94.4%,1.8,3.74 µM,91.5%,,,,,,,,,
CC1=C(CCC(=O)O)C(=O)c2c(O)cccc2C1=O,,,,,,,,,5%,20.3%,,,,,,,
CC1=C(CC(=O)OCCCOc2no[n+]([O-])c2S(=O)(=O)c2ccccc2)C(=O)c2c(O)cccc2C1=O,,7 µM,1.76 µM,4,97.7%,2.5,4.41 µM,97.2%,,,,,,,,,
CC1=C(CC(=O)OCCOc2no[n+]([O-])c2S(=O)(=O)c2ccccc2)C(=O)c2c(O)cccc2C1=O,,18.6 µM,3.27 µM,,97.3%,1.9,6.11 µM,93.3%,,,,,,,,,
CC1=C(CCC(=O)OCC(C)COc2no[n+]([O-])c2S(=O)(=O)c2ccccc2)C(=O)c2c(O)cccc2C1=O (centres undefined),Metabolite_Detected,18.2 µM,2.67 µM,6.8,97.4%,2.5,6.69 µM,73.4%,,,,,,,,,
CC1=CC(=O)c2c(O)cccc2C1=O [PLUMBAGIN],,12.4 µM,14.2 µM,0.9,32.8%,0.7,10.7 µM,41%,,,> 95%,> 95%,Stable,,,,
CC1=C(CCC(=O)OCCCCOc2no[n+]([O-])c2S(=O)(=O)c2ccccc2)C(=O)c2c(O)cccc2C1=O,Metabolite_Detected,8.31 µM,1.24 µM,6.7,97.6%,2.7,3.33 µM,95.4%,,,,,,,,,
CC1=C(CC(=O)O)C(=O)c2c(O)cccc2C1=O,,,,,,,,,2.4%,11%,,,,,,,
CC1=C(CCCC(=O)O)C(=O)c2c(O)cccc2C1=O,,,,,,,,,,,,,,6.1%,23.2%,,
CC1=C(CCC(=O)OCCOc2no[n+]([O-])c2S(=O)(=O)c2ccccc2)C(=O)c2c(O)cccc2C1=O,,9.31 µM,1.21 µM,7.7,97.6%,2.5,2.98 µM,95.7%,,,,,Stable,,,> 98%,Stable
CC(=O)c1cc2c(o1)C(=O)c1ccccc1C2=O [NAPABUCASIN],,0.74 µM,0.34 µM,2.2,,1.8,0.66 µM,,,,,,,,,,
CC1=C(CCC(=O)OCCCOc2no[n+]([O-])c2S(=O)(=O)c2ccccc2)C(=O)c2c(O)cccc2C1=O,Metabolite_Detected,> 20 µM,4.31 µM,>4.7,96.8%,1.6,6.79 µM,95.1%,,,,,,,,,
CC1=C(C(C)CC(=O)OCCCCOc2no[n+]([O-])c2S(=O)(=O)c2ccccc2)C(=O)c2c(O)cccc2C1=O (centres undefined),,19.6 µM,1.98 µM,10,92.7%,2.1,4.24 µM,89.2%,,,,,,,,,
CC1=C(CCCC(=O)OCCOc2no[n+]([O-])c2S(=O)(=O)c2ccccc2)C(=O)c2c(O)cccc2C1=O,,10.2 µM,1.52 µM,6.7,97.9%,2.7,4.16 µM,95.1%,,,,,,,,,
CC1=C(CC(=O)OCC(C)COc2no[n+]([O-])c2S(=O)(=O)c2ccccc2)C(=O)c2c(O)cccc2C1=O (centres undefined),Metabolite_Detected,5.83 µM,1.51 µM,3.9,97.3%,2,3 µM,96.6%,,,,,,,,,
